Here are results for 6 compounds from patent US4032659A (priority 1975, dated 1977).

Where a name gives a salt, the structure may show the parent alone.

The subject of the assay is Influenza Ann Arbor virus. As to the kind of experiment: Chemoprophylaxis of Influenza Ann Arbor (A1) virus infection in mice. The format is in vivo, mouse.
Where [1] appears, read: subcutaneous, total dose .003 μg.

On to `C=CCNC(=S)NN=C1Cc2ccccc2C1` [2-Indanone, 4-allylthiosemicarbazone], for which the “No. animals surviving after 7 days” value (oral, total dose 30 pg) was found to be 4; the “No. animals surviving after 7 days” value (oral, total dose 300 pg) was determined as 7; the “No. animals surviving after 7 days” value (oral, total dose 3 ng) was determined as 4; the “No. animals surviving after 7 days” value (oral, total dose 30 ng) was found to be 6; the “No. animals surviving after 7 days” value (oral, total dose 300 ng) was found to be 6; the “No. animals surviving after 7 days” value (oral, total dose 3 μg) amounted to 2. Moreover, the “No. animals surviving after 7 days” value (oral, total dose 30 μg) is 6; the “No. animals surviving after 7 days” value (oral, total dose 300 μg) worked out at 2; the “No. animals surviving after 7 days” value (oral, total dose 3 mg) is 4. The Survivors was found to be 0 (oral, total dose 30 pg); 0 (oral, total dose 300 pg); 0 (oral, total dose 3 ng); 0 (oral, total dose 30 ng); 0 (oral, total dose 300 ng); 0 (oral, total dose 3 μg). Besides, the Survivors was 0 (oral, total dose 30 μg); 0 (oral, total dose 300 μg); 1 (oral, total dose 3 mg).
`CCC(CC)=NNC(N)=S` [3-pentanone, thiosemicarbazone]: the “No. animals surviving after 6 days” value came out at 2 (oral, total dose 30 pg); 1 (oral, total dose 300 pg); 3 (oral, total dose 3 ng); 0 (oral, total dose 30 ng); 3 (oral, total dose 300 ng); 6 (oral, total dose 3 μg). For the same compound, the “No. animals surviving after 6 days” value came out at 7 (oral, total dose 30 μg) and 4 (oral, total dose 300 μg). In addition, the Survivors by setting is: (oral, total dose 30 pg) 0; (oral, total dose 300 pg) 0; (oral, total dose 3 ng) 0; (oral, total dose 30 ng) 0; (oral, total dose 300 ng) 0; (oral, total dose 3 μg) 1. Also, the Survivors runs as follows: (oral, total dose 12 μg) 0; (oral, total dose 18 μg) 1; (oral, total dose 24 μg) 0; (oral, total dose 30 μg) 0; (oral, total dose 60 μg) 0; (oral, total dose 90 μg) 0. For the same compound, the Survivors by setting is: (oral, total dose 120 μg) 1; (oral, total dose 150 μg) 1; (oral, total dose 300 μg) 0. Also, the “No. animals surviving after 7 days” value is, setting by setting: (oral, total dose 12 μg) 1; (oral, total dose 18 μg) 1; (oral, total dose 24 μg) 0; (oral, total dose 60 μg) 1; (oral, total dose 90 μg) 3; (oral, total dose 120 μg) 1. The “No. animals surviving after 7 days” value (oral, total dose 150 μg) turned out to be 2.
With `NC(=S)NN=C1Cc2ccccc2C1` [2-indanone, thiosemicarbazone], the “No. animals surviving after 5 days” value (oral, total dose 30 pg) is given as 8; the “No. animals surviving after 5 days” value (oral, total dose 300 pg) is recorded as 8; the “No. animals surviving after 5 days” value (oral, total dose 3 ng) is recorded as 5; the “No. animals surviving after 5 days” value (oral, total dose 30 ng) was 9; the “No. animals surviving after 5 days” value (oral, total dose 300 ng) stood at 8; the “No. animals surviving after 5 days” value (oral, total dose 3 μg) was determined as 8. Moreover, the “No. animals surviving after 5 days” value (oral, total dose 30 μg) came out at 8 and the “No. animals surviving after 5 days” value (oral, total dose 300 μg) came out at 6. The Survivors is, setting by setting: (oral, total dose 30 pg) 1; (oral, total dose 300 pg) 0; (oral, total dose 3 ng) 0; (oral, total dose 30 ng) 0; (oral, total dose 300 ng) 1; (oral, total dose 3 μg) 1. Further, the Survivors is, setting by setting: (oral, total dose 30 μg) 0; (oral, total dose 300 μg) 0.
With `N=C(N)NN` [aminoguanidine], the “No. animals surviving after 7 days” value is, setting by setting: (oral, total dose 300 pg) 6; (oral, total dose 3 μg) 8; (oral, total dose 30 μg) 8; (subcutaneous, total dose 3 μg) 6; (subcutaneous, total dose .0003 μg) 8; under setting [1], 8. For the same compound, the Survivors is, setting by setting: (oral, total dose 300 pg) 1; (oral, total dose 3 ng) 1; (oral, total dose 30 ng) 2; (oral, total dose 300 ng) 4; (oral, total dose 3 μg) 3; (oral, total dose 30 μg) 5. The Survivors was determined as 2 (subcutaneous, total dose 3 μg); 2 (subcutaneous, total dose 30 μg); 0 under setting [1]; 1 (subcutaneous, total dose .03 μg); 1 (subcutaneous, total dose .3 μg). Where the note is “subcutaneous, one dose level”, this compound displayed a survival of 50%.
Take `CNNC` [1,2-dimethylhydrazine, dihydrochloride]: the “No. animals surviving after 6 days” value came out at 6 (oral, total dose 30 pg); 2 (oral, total dose 300 pg); 3 (oral, total dose 3 ng); 3 (oral, total dose 30 ng); 5 (oral, total dose 300 ng); 3 (oral, total dose 3 μg). Also, the “No. animals surviving after 6 days” value by setting is: (oral, total dose 30 μg) 4; (oral, total dose 300 μg) 6; (oral, total dose 3 mg) 3. In addition, the Survivors runs as follows: (oral, total dose 30 pg) 1; (oral, total dose 300 pg) 0; (oral, total dose 3 ng) 0; (oral, total dose 30 ng) 1; (oral, total dose 300 ng) 0; (oral, total dose 3 μg) 0. The Survivors is, setting by setting: (oral, total dose 30 μg) 0; (oral, total dose 300 μg) 0; (oral, total dose 3 mg) 0.
For the compound `CCOC(=O)CC(C)=NNC(N)=S` [acetoacetic acid, ethyl ester, thiosemicarbazone], the “No. animals surviving after 5 days” value is given as 8 (oral, total dose 30 pg); 4 (oral, total dose 300 pg); 5 (oral, total dose 3 ng); 5 (oral, total dose 30 ng); 4 (oral, total dose 300 ng); 6 (oral, total dose 3 μg). Further, the “No. animals surviving after 5 days” value reads like this: (oral, total dose 30 μg) 8; (oral, total dose 300 μg) 7; (oral, total dose 3 mg) 5. The Survivors by setting is: (oral, total dose 30 pg) 0; (oral, total dose 300 pg) 0; (oral, total dose 3 ng) 0; (oral, total dose 30 ng) 0; (oral, total dose 300 ng) 0; (oral, total dose 3 μg) 0. Also, the Survivors (oral, total dose 30 μg) stood at 0; the Survivors (oral, total dose 300 μg) amounted to 0; the Survivors (oral, total dose 3 mg) turned out to be 0.
